These results are taken from US20100216779A1 (GLAXOSMITHKLINE LLC, priority 2007, published 2010).

The structures appear in SMILES notation. Bounds are passed on as bounds.

What all share (assay type): cell-based
The target in test [1] is T1, IR (NIH-3T3 cells over expressing human IGF-1R or IR) (Homo sapiens, UniProt P06213).
T1 construct: expressed in transfected cells; host or cells: NIH-3T3 (mouse fibroblasts)
The test is described as follows: IR cellular autophosphorylation (DELFIA). As to conditions: NIH-3T3 cells over expressing IR, insulin stimulated. The method, boiled down: (§1)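 Read-out: DELFIA on lysates, receptor-specific capture antibody plus europium-labelled anti-phosphotyrosine, reported as % of IGF-1- or insulin-stimulated signal. Transfected NIH-3T3 cells got compound (30 uM–1.5 nM, 2 h) before a 15 min ligand pulse: IGF-1 30 ng/mL for IGF-1R, insulin 3 ug/mL for IR.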

A further test concerns COLO205 (colon). The test is described as follows: Inhibition of cell proliferation, CellTiter-Glo, COLO205. The following applies: Homo sapiens, COLO 205, 72 h. An outline of the steps:
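Exponentially growing COLO205 cells in medium with 10% FBS were plated below 2000 cells/well at 37 °C, 5% CO2. Untreated wells served as controls.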
On the technique in general: Cellular ATP, detected with luciferase, serves as a proxy for viable cell number.

For test [2], the system named is NCI-H929 (multiple myeloma). The test is described as follows: Inhibition of cell proliferation, CellTiter-Glo, NCI-H929. The following applies: Homo sapiens, 72 h. An outline of the steps: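 Cells were grown in medium with 10% FBS at 37° C, 5% CO2. Cell number was read as CellTiter-Glo luminescence (cellular ATP), with untreated wells as control.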
Test [3] has as its target T2, human IGF-1R (NIH-3T3 cells over expressing human IGF-1R) (Homo sapiens, UniProt P08069).
T2 construct: expressed in transfected cells; host or cells: NIH-3T3 (mouse fibroblasts)
Description: IGF-1R cellular autophosphorylation (DELFIA). As to conditions: IGF-1 stimulated. An outline of the steps: as §1

T1 sequence (P06213 28-1382): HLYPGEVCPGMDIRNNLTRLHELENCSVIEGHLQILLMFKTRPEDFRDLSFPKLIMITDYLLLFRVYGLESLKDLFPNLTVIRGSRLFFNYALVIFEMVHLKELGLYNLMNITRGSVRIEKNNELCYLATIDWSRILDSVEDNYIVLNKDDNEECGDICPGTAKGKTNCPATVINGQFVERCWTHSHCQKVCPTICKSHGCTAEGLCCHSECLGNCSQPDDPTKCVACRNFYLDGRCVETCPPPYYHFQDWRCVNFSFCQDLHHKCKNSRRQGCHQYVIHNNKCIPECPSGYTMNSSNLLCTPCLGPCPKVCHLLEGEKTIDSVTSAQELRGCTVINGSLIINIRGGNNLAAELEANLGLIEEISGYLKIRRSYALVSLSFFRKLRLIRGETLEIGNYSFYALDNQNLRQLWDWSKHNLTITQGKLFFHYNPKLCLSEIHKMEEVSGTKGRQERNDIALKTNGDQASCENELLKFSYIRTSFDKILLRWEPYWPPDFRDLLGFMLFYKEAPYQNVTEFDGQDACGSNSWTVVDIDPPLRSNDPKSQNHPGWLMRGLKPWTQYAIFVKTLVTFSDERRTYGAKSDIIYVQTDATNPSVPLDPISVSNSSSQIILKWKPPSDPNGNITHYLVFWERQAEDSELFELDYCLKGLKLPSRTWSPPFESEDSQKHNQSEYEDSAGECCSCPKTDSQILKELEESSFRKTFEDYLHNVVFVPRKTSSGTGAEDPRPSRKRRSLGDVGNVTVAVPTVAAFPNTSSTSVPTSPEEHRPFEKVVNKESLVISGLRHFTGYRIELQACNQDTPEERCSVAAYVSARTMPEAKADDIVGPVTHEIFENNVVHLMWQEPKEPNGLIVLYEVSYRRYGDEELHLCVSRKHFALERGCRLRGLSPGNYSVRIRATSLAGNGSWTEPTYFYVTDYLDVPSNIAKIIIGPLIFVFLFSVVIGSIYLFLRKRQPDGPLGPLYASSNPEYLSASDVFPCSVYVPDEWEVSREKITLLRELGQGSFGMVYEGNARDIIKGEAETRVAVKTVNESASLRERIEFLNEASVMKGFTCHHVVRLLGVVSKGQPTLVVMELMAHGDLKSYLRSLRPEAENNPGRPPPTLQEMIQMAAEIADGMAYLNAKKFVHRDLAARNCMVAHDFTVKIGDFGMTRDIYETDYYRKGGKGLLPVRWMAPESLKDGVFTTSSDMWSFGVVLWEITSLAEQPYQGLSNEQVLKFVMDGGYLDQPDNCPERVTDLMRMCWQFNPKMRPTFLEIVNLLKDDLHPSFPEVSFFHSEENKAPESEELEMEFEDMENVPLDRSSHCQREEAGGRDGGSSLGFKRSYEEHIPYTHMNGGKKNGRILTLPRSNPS
T2 sequence (P08069 31-1367): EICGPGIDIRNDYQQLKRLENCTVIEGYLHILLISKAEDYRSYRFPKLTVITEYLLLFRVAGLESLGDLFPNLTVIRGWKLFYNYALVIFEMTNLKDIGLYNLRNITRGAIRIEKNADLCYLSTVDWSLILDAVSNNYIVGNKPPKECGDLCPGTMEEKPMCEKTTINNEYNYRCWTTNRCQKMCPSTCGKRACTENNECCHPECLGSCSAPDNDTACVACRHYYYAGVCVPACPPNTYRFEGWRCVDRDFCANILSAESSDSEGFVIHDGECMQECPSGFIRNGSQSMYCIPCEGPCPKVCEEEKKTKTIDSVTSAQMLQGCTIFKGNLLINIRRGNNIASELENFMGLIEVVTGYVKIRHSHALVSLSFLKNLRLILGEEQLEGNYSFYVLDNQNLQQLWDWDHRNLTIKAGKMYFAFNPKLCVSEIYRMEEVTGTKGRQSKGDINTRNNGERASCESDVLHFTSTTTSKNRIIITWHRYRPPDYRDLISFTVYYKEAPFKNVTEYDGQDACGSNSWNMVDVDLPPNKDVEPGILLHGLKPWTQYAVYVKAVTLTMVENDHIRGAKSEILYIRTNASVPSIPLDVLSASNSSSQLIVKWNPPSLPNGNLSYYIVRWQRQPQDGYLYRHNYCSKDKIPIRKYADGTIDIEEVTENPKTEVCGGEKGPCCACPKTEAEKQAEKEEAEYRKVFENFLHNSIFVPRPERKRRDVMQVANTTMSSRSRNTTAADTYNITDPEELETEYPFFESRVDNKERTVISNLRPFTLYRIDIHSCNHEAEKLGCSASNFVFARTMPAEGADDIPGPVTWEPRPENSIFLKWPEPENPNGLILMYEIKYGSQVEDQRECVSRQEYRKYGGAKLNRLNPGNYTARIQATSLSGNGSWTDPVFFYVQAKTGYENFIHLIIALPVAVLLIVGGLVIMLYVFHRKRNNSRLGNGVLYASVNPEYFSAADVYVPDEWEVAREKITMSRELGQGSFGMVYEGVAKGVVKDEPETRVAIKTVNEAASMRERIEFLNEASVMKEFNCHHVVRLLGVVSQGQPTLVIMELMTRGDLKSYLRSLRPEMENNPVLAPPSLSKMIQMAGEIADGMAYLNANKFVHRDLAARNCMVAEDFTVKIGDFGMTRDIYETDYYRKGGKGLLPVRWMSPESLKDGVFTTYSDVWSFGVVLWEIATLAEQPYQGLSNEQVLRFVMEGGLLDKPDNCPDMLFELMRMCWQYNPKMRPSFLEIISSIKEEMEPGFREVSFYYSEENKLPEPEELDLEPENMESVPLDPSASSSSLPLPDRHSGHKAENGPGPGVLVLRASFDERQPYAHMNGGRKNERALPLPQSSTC

Consider `CCOc1ccc(-c2nc3ccccn3c2-c2ccnc(Nc3cc(C)c(C4CCN(CCS(C)(=O)=O)CC4)cc3OC)n2)cc1C(=O)Nc1c(F)cccc1F` [Example 164, N-(2,6-difluorophenyl)-2-(ethyloxy)-5-(3-{2-[(5-methyl-2-(methyloxy)-4-{1-[2-(methylsulfonyl)ethyl]-4-piperidinyl}phenyl)amino]-4-pyrimidinyl}imidazo[1,2-a]pyridin-2-yl)benzamide], for which the 50% inhibitory concentration (IC50) (usually the concentration that inhibits the measured activity by half) in test [1] is < 100 nM; in the test with COLO205 (colon), < 250 nM; in test [2] it was < 250 nM; in test [3] it was < 100 nM.
As to `CCOc1cc(N2CCC(N3CCN(CCC(F)(F)F)CC3)CC2)ccc1Nc1nccc(-c2c(-c3cccc(C(=O)Nc4c(F)cccc4F)c3)nc3ccccn23)n1` [Example 118, N-(2,6-difluorophenyl)-3-(3-{2-[(2-(ethyloxy)-4-{4-[4-(3,3,3-trifluoropropyl)-1-piperazinyl]-1-piperidinyl}phenyl)amino]-4-pyrimidinyl}imidazo[1,2-a]pyridin-2-yl)benzamide], the IC50 in test [1] fell in the range of 100 to 500 nM; with COLO205 (colon), 250 to 1000 nM; in test [2], 250 to 1000 nM; in test [3], 100 to 500 nM.
`CCOc1cc(N2CCC(N3CCN(CCS(C)(=O)=O)CC3)CC2)ccc1Nc1nccc(-c2c(-c3cccc(C(=O)Nc4c(F)cccc4F)c3)nc3ccccn23)n1` [Example 119, N-(2,6-difluorophenyl)-3-[3-(2-{[2-(ethyloxy)-4-(4-{4-[2-(methylsulfonyl)ethyl]-1-piperazin-yl]-1-piperidinyl)phenyl]amino}-4-pyrimidinyl)imidazo[1,2-a]pyridin-2-yl]benzamide]: the IC50 in test [1] was < 100 nM; in the test with COLO205 (colon), 250 to 1000 nM; in test [2] it was < 250 nM; in test [3] it was < 100 nM.
As to `CCCN1CCN(c2ccc(Nc3nccc(-c4c(-c5cccc(C(=O)Nc6c(F)cccc6F)c5)nc5ccccn45)n3)c(OC)c2)CC1` [Example 173, N-(2,6-difluorophenyl)-3-[3-(2-{[2-(methyloxy)-4-(4-propyl-1-piperazinyl)phenyl]amino}-4-pyrimidinyl)imidazo[1,2-a]pyridin-2-yl]benzamide], the IC50 in test [1] was < 100 nM; in the test on COLO205 (colon), 250 to 1000 nM; in test [2], 250 to 1000 nM; in test [3], < 100 nM.
As for `CCCN1CCN(c2ccc(Nc3nccc(-c4c(-c5ccc(OC)c(C(=O)Nc6c(F)cccc6F)c5)nc5ccccn45)n3)c(OCC)c2)CC1` [Example 151, N-(2,6-difluorophenyl)-5-[3-(2-{[2-(ethyloxy)-4-[4-propyl-1-piperazinyl)phenyl]amino}-4-pyrimidinyl)imidazo[1,2-a]pyridin-2-yl]-2-(methyloxy)benzamide], the concentration for half-maximal inhibition (IC50) in test [1] is < 100 nM; in the test with COLO205 (colon), 250 to 1000 nM; in test [2], < 250 nM; in test [3], < 100 nM.
As for `COc1cc(N2CCC(N3CCN(S(C)(=O)=O)CC3)CC2)ccc1Nc1nccc(-c2c(-c3ccc(OC(C)C)c(C(=O)Nc4c(F)cccc4F)c3)nc3ccccn23)n1` [Example 227, N-(2,6-difluorophenyl)-2-[(1-methylethyl)oxy]-5-(3-{2-[(2-(methyloxy)-4-{4-[4-(methylsulfonyl)-1-piperazinyl]-1-piperidinyl}phenyl)amino]-4-pyrimidinyl}imidazo[1,2-a]pyridin-2-yl)benzamide], the IC50 is < 100 nM in test [1], < 250 nM with COLO205 (colon), < 250 nM in test [2] and < 100 nM in test [3].
As to `COc1cc(N2CCC(N3CCN(CCF)CC3)CC2)c(C)cc1Nc1nccc(-c2c(-c3cccc(C(=O)Nc4c(F)cccc4F)c3)nc3ccccn23)n1` [Example 113, N-(2,6-difluorophenyl)-3-[3-(2-{[4-{4-[4-(2-fluoroethyl)-1-piperazinyl]-1-piperidinyl}-5-methyl-2-(methyloxy)phenyl]amino]-4-pyrimidinyl)imidazo[1,2-a]pyridin-2-yl]benzamide], the IC50 was < 100 nM in test [1], > 1000 nM in the test with COLO205 (colon), 250 to 1000 nM in test [2] and < 100 nM in test [3].
Take `CCOc1ccc(-c2nc3ccccn3c2-c2ccnc(Nc3ccc(N4CCC(N5CCN(CCF)CC5)CC4)cc3OC)n2)cc1C(=O)Nc1c(F)cccc1F` [Example 63, N-(2,6-difluorophenyl)-2-(ethyloxy)-5-[3-(2-{[4-{4-[4-(2-fluoroethyl)-1-piperazinyl]-1-piperidinyl}-2-(methyloxy)phenyl]amino}-4-pyrimidinyl)imidazo[1,2-a]pyridin-2-yl]benzamide]: the IC50 in test [1] is < 100 nM; with COLO205 (colon), 250 to 1000 nM; in test [2], < 250 nM; in test [3], < 100 nM.
In the case of `CCCN1CCC(c2ccc(Nc3nccc(-c4c(-c5cccc(C(=O)Nc6c(F)cccc6F)c5)nc5ccccn45)n3)c(OC)c2)CC1` [Example 138, N-(2,6-difluorophenyl)-3-[3-(2-{[2-(methyloxy)-4-(1-propyl-4-piperidinyl)phenyl]amino}-4-pyrimidinyl)imidazo[1,2-a]pyridin-2-yl]benzamide], the IC50 in test [1] was < 100 nM; in the test on COLO205 (colon), 250 to 1000 nM; in test [2] it was < 250 nM; in test [3] it was < 100 nM.
Turning to `COc1cc(N2CCC(N3CCC(C(F)(F)F)CC3)CC2)ccc1Nc1nccc(-c2c(-c3cccc(C(=O)Nc4c(F)cccc4F)c3)nc3ccccn23)n1` [Example 52, N-(2,6-difluorophenyl)-3-{3-[2-({2-(methyloxy)-4-[4-(trifluoromethyl)-1,4′-bipiperidin-1′-yl]phenyl}amino)-4-pyrimidinyl]imidazo[1,2-a]pyridin-2-yl}benzamide], the half-inhibitory concentration (IC50) was 100 to 500 nM in test [1], 250 to 1000 nM in the test on COLO205 (colon), 250 to 1000 nM in test [2] and < 100 nM in test [3].
As for `COc1cc(N2CCC(N3CCN(CCF)CC3)CC2)ccc1Nc1nccc(-c2c(-c3ccc(OC)c(C(=O)Nc4c(F)cccc4F)c3)nc3cc(F)ccn23)n1` [Example 197, N-(2,6-difluorophenyl)-5-[7-fluoro-3-(2-{[4-{4-[4-(2-fluoroethyl)-1-piperazinyl]-1-piperidinyl]-2-(methyloxy)phenyl]amino}-4-pyrimidinyl)imidazo[1,2-a]pyridin-2-yl]-2-(methyloxy)benzamide], the IC50 in test [1] is < 100 nM; with COLO205 (colon), 250 to 1000 nM; in test [2], < 250 nM; in test [3] it was < 100 nM.
In the case of `COc1cc(N2CCC(CCS(C)(=O)=O)CC2)ccc1Nc1nccc(-c2c(-c3ccc(OC)c(C(=O)Nc4c(F)cccc4F)c3)nc3ccccn23)n1` [Example 201, N-(2,6-difluorophenyl)-2-(methyloxy)-5-(3-{2-[(2-(methyloxy)-4-{4-[2-(methylsulfonyl)ethyl]-1-piperidinyl}phenyl)amino]-4-pyrimidinyl}imidazo[1,2-a]pyridin-2-yl)benzamide], the IC50 is < 100 nM in test [1], 250 to 1000 nM with COLO205 (colon), < 250 nM in test [2] and < 100 nM in test [3].
On to `COc1cc(N2CCC(C3CCN(CCF)CC3)CC2)ccc1Nc1nccc(-c2c(-c3ccc(OC)c(C(=O)Nc4c(F)cccc4F)c3)nc3ccccn23)n1` [Example 96, N-(2,6-difluorophenyl)-5-[3-(2-{[4-[1′-(2-fluoroethyl)-4,4′-bipiperidin-1-yl]-2-(methyloxy)phenyl]amino}-4-pyrimidinyl)imidazo[1,2-a]pyridin-2-yl]-2-(methyloxy)benzamide], for which the IC50 is < 100 nM in test [1], > 1000 nM in the test with COLO205 (colon), 250 to 1000 nM in test [2] and < 100 nM in test [3].
Turning to `COc1cc(N2CCN3CCOC[C@@H]3C2)ccc1Nc1nccc(-c2c(-c3ccc(OC)c(C(=O)Nc4c(F)cccc4F)c3)nc3ccccn23)n1` [Example 124, N-(2,6-difluorophenyl)-5-[3-(2-{[4-[(9aS)-hexahydropyrazino[2,1-c][1,4]oxazin-8(1H)-yl]-2-(methyloxy)phenyl]amino}-4-pyrimidinyl)imidazo[1,2-a]pyridin-2-yl]-2-(methyloxy)-benzamide], the IC50 in test [1] is < 100 nM; in the test on COLO205 (colon), > 1000 nM; in test [2], < 250 nM; in test [3], < 100 nM.
On to `CCOc1cc(N2CCN(C(C)C)CC2)ccc1Nc1nccc(-c2c(-c3cccc(C(=O)Nc4c(F)cccc4F)c3)nc3ccccn23)n1` [Example 171, N-(2,6-difluorophenyl)-3-{3-[2-({2-(ethyloxy)-4-[4-(1-methylethyl)-1-piperazinyl]phenyl}amino)-4-pyrimidinyl]imidazo[1,2-a]pyridin-2-yl}benzamide], for which the concentration for half-maximal inhibition (IC50) was < 100 nM in test [1], 250 to 1000 nM in the test on COLO205 (colon), 250 to 1000 nM in test [2] and < 100 nM in test [3].
Take `COc1cc(N2CCN(CCS(C)(=O)=O)[C@@H](C(C)C)C2)ccc1Nc1nccc(-c2c(-c3ccc(OC)c(C(=O)Nc4c(F)cccc4F)c3)nc3ccccn23)n1` [Example 250, N-(2,6-difluorophenyl)-5-[3-(2-{[4-{(3S)-3-(1-methylethyl)-4-[2-(methylsulfonyl)ethyl]-1-piperazinyl}-2-(methyloxy)phenyl]amino}-4-pyrimidinyl)imidazo[1,2-a]pyridin-2-yl]-2-(methyloxy)benzamide]: the IC50 is < 100 nM in test [1], 250 to 1000 nM in the test on COLO205 (colon), < 250 nM in test [2] and < 100 nM in test [3].
